Patent US20050266469A1, “Alternatively spliced isoforms of checkpoint kinase 1 (CHK1)” (priority 2004, published 2005)
Where two headings read alike, the source gives them in different places. Values belong to the compound of their own block, whether it stands above or below them.

Legend:
CHK1sv1 = molecular target: T1, CHK1sv1 (Homo sapiens, UniProt O14757); test: CHK1sv1 kinase assay (Homogenous Time-Resolved Fluorescence, synthetic peptide substrate); assay type: biochemical
T1 construct: made in house; host or cells: SF9 insect cells (baculovirus, pVL1393 transfer vector)
T1 sequence (O14757 with tags, fused parts or gaps): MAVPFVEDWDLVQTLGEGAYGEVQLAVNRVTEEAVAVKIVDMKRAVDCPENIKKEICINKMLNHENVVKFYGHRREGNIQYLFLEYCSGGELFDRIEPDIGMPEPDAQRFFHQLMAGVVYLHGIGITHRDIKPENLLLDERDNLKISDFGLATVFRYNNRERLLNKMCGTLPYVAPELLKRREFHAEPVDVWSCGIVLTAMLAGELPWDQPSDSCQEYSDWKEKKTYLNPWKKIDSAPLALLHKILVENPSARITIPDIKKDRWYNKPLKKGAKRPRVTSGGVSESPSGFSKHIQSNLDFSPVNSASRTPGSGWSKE
Protocol: CHK1sv1 activity was assayed in vitro using a synthetic peptide substrate. The phophopeptide product was quantitated using a Homogenous Time-Resolved Fluorescence assay system (Park et al., 1999, Anal. Biochem. 269:94-104). The reaction mixture contained 40 mM HEPES, pH 7.3; 100 mM NaCl; 10 mM MgCl2; 2 mM dithiothreitol; 0.1% BSA; 0.1 mM ATP; 0.5 μM peptide substrate; and 0.1 nM CHK1sv1 enzyme in a final volume of 40 μl. […] The kinase reaction was incubated for 30 minutes at 22° C., and then terminated with 60 μl Stop/Detection Buffer (40 mM HEPES, pH 7.3; 10 mM EDTA; 0.125% Triton X-100; 1.25% BSA; 250 nM PhycoLink Streptavidin-Allophycocyanin (APC) Conjugate (Prozyme, San Leandro, Calif.); and […] Europium-chelate labeled anti-phosphotyrosine antibody (PY20, Perkin Elmer, Boston, Mass.)). The reaction was allowed to equilibrate for 2 hours at 22° C., and relative fluorescent units were read on a Discovery plate reader (Packard Biosciences). ATP Km was determined by varying ATP concentration from 0.003 to 3 mM in the reaction described above and determining the relative enzymatic rates. […] CHK1sv1 Vmax was calculated by determining the amount of phospho-peptide product formed per microgram of CHKsv1 when both ATP and CDC25C peptide substrate are at saturating concentrations.

reference CHK1 = molecular target: T2, reference CHK1 (Homo sapiens, UniProt O14757); conditions: cited from earlier work
T2 sequence (O14757 1-476): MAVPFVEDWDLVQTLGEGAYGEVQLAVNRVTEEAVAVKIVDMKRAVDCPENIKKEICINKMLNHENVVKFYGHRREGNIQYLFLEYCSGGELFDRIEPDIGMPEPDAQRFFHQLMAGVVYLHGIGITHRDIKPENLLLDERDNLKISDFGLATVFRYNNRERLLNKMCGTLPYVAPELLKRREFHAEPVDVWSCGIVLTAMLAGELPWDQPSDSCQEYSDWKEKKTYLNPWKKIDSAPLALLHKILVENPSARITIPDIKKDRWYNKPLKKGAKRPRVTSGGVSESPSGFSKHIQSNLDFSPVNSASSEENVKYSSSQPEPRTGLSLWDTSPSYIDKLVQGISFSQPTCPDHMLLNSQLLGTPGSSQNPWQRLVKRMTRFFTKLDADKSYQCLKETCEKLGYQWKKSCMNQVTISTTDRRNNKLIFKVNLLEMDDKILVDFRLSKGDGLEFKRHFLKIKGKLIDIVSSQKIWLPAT

[1] = read-out: CHK1sv1 inhibition by derivatives of staurosporin, IC50 values, CHK1sv1 enzyme 0.1 nM, 0.1 mM ATP, 0.5 μM peptide substrate, 30 minutes at 22° C.

Compound: Cn1cc(C2=C(c3cn(CCCN)c4ccccc34)C(=O)NC2=O)c2ccccc21 [RO317549]
- IC50 (CHK1sv1; [1]): 0.125 µM

Compound: COC(=O)[C@@]1(O)C[C@H]2O[C@]1(C)n1c3ccccc3c3c4c(c5c6ccccc6n2c5c31)C(=O)NC4 [K252A]
- IC50 (CHK1sv1): 0.05 µM

Compound: Cn1c2ccccc2c2c3c(c4c5ccccc5n(CCC#N)c4c21)CNC3=O [Gö6976]
- IC50 (reference CHK1; previously published (Davies et al., 2000), read-out: IC50 value for the reference CHK1 inhibited by Gö6976): 0.003 µM
- IC50 (CHK1sv1; [1]): 0.00075 µM

- IC50 (CHK1sv1; CHK1sv1 enzyme 0.1 nM, 0.1 mM ATP, 0.5 μM peptide substrate, 30 minutes at 22° C.): 0.39 µM
Compound: CN(C)C[C@H]1CCn2c(c(C3=C(c4cn(C)c5ccccc45)C(=O)NC3=O)c3ccccc32)C1 [RO-320432]

- Km (CHK1sv1; CDC25C-derived peptide varied from 0.0003 to 1 mM): 120 µM
Compound: CDC25C substrate: peptide derived from the known CHK1 kinase substrate CDC25C, GLYRSPSMPENLNR (SynPep) (listed as Homo sapiens)
- Km (reference CHK1; previously described (O'Neill et al., 2002; Jackson et al., 2000), read-out: Km (CDC25C substrate)): 12 µM
